In patent US10174288B2, “Induced pluripotent stem cell model for cardiofaciocutaneous syndrome and uses thereof” (Korea Advanced Institute of Science and Technology, priority 2013, dated 2019):

Key:
Format in all cases: cell-based, human
p-SMAD1 = assay: Western blotting of p-SMAD1 in CFC-embryonic body differentiated with inhibitor; settings: 5 μM U0126, 100 nM LDN193189 during embryonic body differentiation; compared with untreated CFC-embryonic body; FIG. 7
Protocol: (§1) Particularly, the colony of CFC-iPS induced by the same manner as described in Example <2-1> was cut into 4 pieces by using […] tissue chopper. The CFC-iPS fragments were distributed in the ultra-low attachment dish, followed by re-suspension in 5 ml of the embryonic body differentiation medium, which was DMED/F12 supplemented with 10% serum replacement (SR). After 4 days of suspension culture, the differentiation of a CFC-iPS-derived embryonic body (CFC-embryonic body) was induced. On day 2 and day 4 from the inducement, the CFC-embryonic body was obtained and the cell morphology was observed under phase contrast microscope. WT-iPS was cultured as the normal control by the same manner as described above, so that the differentiation of a WT-iPS-derived embryonic body (WT-embryonic body) was induced. […] The concentration of the protein was measured by brad-ford assay. […] The expression levels of SMAD1, p-SMAD1, ERK1, p-ERK1, ERK2, and p-ERK2 were quantified by using Image J, the program for the measurement of the pixel intensity, by which the band intensity turned into numerical value. The relative values of p-SMAD1/SMAD1, p-ERK1/ERK1, and p-ERK2/ERK2 were calculated and then the phosphorylation levels of SMAD1, ERK1, and ERK2 were compared with those of the normal control. […]

CFC-embryonic body = assay: Embryonic body shape under phase contrast microscope; settings: inhibitor present during CFC-embryonic body differentiation (LDN193189 100 nM, 4 days); compared with untreated CFC-embryonic body; FIG. 8
Protocol: The CFC-iPS fragments were distributed in the ultra-low attachment dish, followed by re-suspension in 5 ml of the embryonic body differentiation medium, which was DMED/F12 supplemented with 10% serum replacement (SR). After 4 days of suspension culture, the differentiation of a CFC-iPS-derived embryonic body (CFC-embryonic body) was induced. On day 2 and day 4 from the inducement, the CFC-embryonic body was obtained and the cell morphology was observed under phase contrast microscope. WT-iPS was cultured as the normal control by the same manner as described above, so that the differentiation of a WT-iPS-derived embryonic body (WT-embryonic body) was induced. […] 4 days after the inducement started, the CFC-embryonic body was obtained and observed under phase contrast microscope to investigate the embryonic body shape. As for the normal control, WT-iPS was cultured by the same manner as described above to induce the differentiation of a WT-iPS derived embryonic body (WT-embryonic body).

p-ERK = assay: Western blotting of p-ERK in CFC-embryonic body differentiated with inhibitor; settings: 5 μM U0126, 100 nM LDN193189 during embryonic body differentiation; compared with untreated CFC-embryonic body; FIG. 7
Protocol: as §1

N#CC(=C(N)Sc1ccccc1N)C(C#N)=C(N)Sc1ccccc1N [U0126, 1,4-diamino-2,3-dicyano-1,4-bis(2-aminophenylthio)butadiene] was tested, and the “level of p-SMAD1 in CFC-embryonic body” value (p-SMAD1) was “reduced”, the embryonic body shape (CFC-embryonic body) was “normal unbroken embryonic body shape” and the “level of p-ERK in CFC-embryonic body” value (p-ERK) was “down regulation”.
